Peptide text beside a SMILES is read from it.
Legend:
HDAC2 = target: T1, HDAC2 (Homo sapiens, UniProt Q92769); assay: HDAC2 inhibition, full IC50 measurement (Reaction Biology; fluorogenic p53 peptide RHKK(Ac)AMC); format: biochemical
T1 construct: purchased Reaction Biology Corporation (assay run by the CRO)
Protocol: (§1) The assay was performed using 50 μM fluorogenic peptide from p53 residues 379-382 [RHKK(Ac)AMC] in a base reaction buffer of 50 mM Tris-HCl at pH 8.0, 137 mM NaCl, 2.7 mM KCl, 1 mM MgCl2, and freshly added 1 mg/ml BSA and 1% DMSO. Peptides were first dissolved in DMSO and then added to the reaction mixture with the enzyme using acoustic technique, enough to reach the desired concentration for that assay point. Peptide concentrations were calculated based on mass of lyophilized peptide and its molecular weight. The substrate was then added and incubated for 1 hour at 30 °C in a sealed container. After the incubation, developer was added to stop the reaction and develop color. Kinetic measurements were then performed for 20 min with Envision with 5 min intervals (Ex/Em = 360/460 nm). The endpoint after plateau was taken for IC50 measurement.
(§2) In cases where duplicate measures are used, average data is reported in the main text or Supplementary Tables.

HDAC6 = target: T2, HDAC6 (Homo sapiens, UniProt Q9UBN7); assay: HDAC6 inhibition, full IC50 measurement (Reaction Biology; fluorogenic p53 peptide RHKK(Ac)AMC); format: biochemical
T2 construct: purchased Reaction Biology Corporation (assay run by the CRO)
T2 sequence (Q9UBN7 1-1215): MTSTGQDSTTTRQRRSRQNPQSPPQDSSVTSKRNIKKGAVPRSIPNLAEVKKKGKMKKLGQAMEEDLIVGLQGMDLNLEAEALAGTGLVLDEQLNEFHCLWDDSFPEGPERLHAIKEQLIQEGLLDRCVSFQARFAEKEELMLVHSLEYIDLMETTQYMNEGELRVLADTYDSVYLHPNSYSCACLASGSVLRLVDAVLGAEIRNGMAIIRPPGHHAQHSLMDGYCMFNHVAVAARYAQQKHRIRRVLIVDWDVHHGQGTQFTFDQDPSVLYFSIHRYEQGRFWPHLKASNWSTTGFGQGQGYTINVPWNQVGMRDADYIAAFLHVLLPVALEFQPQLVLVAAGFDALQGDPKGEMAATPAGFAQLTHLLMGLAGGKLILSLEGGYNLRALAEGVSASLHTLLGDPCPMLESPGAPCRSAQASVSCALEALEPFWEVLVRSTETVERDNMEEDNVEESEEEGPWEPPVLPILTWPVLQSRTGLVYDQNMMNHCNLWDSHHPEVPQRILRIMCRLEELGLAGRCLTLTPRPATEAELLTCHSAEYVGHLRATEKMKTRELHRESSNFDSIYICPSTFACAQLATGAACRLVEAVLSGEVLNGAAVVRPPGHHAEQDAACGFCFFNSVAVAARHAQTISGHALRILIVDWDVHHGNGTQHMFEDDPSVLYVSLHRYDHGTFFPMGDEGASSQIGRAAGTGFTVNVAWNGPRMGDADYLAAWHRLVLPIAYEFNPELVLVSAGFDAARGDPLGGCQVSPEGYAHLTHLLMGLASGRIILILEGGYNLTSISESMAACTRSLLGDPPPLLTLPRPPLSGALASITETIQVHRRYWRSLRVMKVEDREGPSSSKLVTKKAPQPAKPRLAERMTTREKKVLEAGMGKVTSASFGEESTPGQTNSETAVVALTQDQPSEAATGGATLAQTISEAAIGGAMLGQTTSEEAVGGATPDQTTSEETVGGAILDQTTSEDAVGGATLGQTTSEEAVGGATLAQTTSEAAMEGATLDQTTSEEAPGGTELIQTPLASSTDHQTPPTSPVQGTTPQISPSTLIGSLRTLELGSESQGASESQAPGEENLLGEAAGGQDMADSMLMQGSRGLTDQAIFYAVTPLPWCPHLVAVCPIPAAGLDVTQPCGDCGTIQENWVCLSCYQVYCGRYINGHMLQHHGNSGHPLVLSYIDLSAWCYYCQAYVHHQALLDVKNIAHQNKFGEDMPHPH
Protocol: as §1, §2

T1 sequence (Q92769 whole entry): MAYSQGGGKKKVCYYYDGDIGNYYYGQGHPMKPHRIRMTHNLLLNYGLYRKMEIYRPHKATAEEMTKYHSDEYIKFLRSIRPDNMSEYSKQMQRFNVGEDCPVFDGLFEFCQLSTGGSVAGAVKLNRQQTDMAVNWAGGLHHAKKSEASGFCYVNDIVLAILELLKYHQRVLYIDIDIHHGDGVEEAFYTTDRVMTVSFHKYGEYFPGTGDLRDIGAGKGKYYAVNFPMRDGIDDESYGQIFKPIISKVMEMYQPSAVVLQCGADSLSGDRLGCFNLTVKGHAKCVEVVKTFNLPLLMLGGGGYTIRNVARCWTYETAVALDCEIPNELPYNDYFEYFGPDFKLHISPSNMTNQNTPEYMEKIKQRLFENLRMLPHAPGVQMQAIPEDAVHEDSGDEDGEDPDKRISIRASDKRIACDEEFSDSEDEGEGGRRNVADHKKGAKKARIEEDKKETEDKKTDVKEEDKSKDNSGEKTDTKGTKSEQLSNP

In the case of CCCC[C@H]1NC(=O)[C@H](Cc2ccccc2)NC(=O)[C@H](CCCCCS)NC(=O)[C@@H](CCCNC(=N)N)NC(=O)[C@H](C)NC(=O)[C@@H](CO)NC(=O)[C@@H](C)NC(=O)[C@H](CCCCN)NC1=O [des4.3.1.3, SHA-Phe-dNle-Lys-dAla-dSer-Ala-dArg] (HELM PEPTIDE1{A.[dR].[O=C([C@H](CCCCCS)N[*:1])[*:2]].F.[CCCC[C@@H](N[*:1])C(=O)[*:2]].K.[dA].[dS]}$PEPTIDE1,PEPTIDE1,1:R1-8:R2$$$V2.0), the “HDAC2 activity raw data (signal)” value (HDAC2; Conc. 1.00E-05 M, t1) is reported as 193929, the “HDAC2 activity raw data (signal)” value (HDAC2; Conc. 1.00E-05 M, t2) is reported as 207672 and the “HDAC2 activity raw data (signal)” value (HDAC2; Conc. 1.11E-06 M, t1) is reported as 922315. For the same compound, the “HDAC2 activity raw data (signal)” value (HDAC2; Conc. 1.11E-06 M, t2) was 983057, the “HDAC2 activity raw data (signal)” value (HDAC2; Conc. 1.23E-07 M, t1) was 1473586 and the “HDAC2 activity raw data (signal)” value (HDAC2; Conc. 1.23E-07 M, t2) was 1600746. The “HDAC2 activity raw data (signal)” value (HDAC2; Conc. 1.37E-08 M, t1) was 1736023, the “HDAC2 activity raw data (signal)” value (HDAC2; Conc. 1.37E-08 M, t2) was 1721378 and the “HDAC2 activity raw data (signal)” value (HDAC2; Conc. 1.52E-09 M, t1) was 1807312. The “HDAC2 activity raw data (signal)” value (HDAC2; Conc. 1.52E-09 M, t2) was 1809308, the “HDAC2 activity raw data (signal)” value (HDAC2; Conc. 3.33E-06 M, t1) was 507679 and the “HDAC2 activity raw data (signal)” value (HDAC2; Conc. 3.33E-06 M, t2) was 555133. For the same compound, the “HDAC2 activity raw data (signal)” value (HDAC2; Conc. 3.70E-07 M, t1) was 1323328, the “HDAC2 activity raw data (signal)” value (HDAC2; Conc. 3.70E-07 M, t2) was 1396903 and the “HDAC2 activity raw data (signal)” value (HDAC2; Conc. 4.12E-08 M, t1) was 1569368. The “HDAC2 activity raw data (signal)” value (HDAC2; Conc. 4.12E-08 M, t2) was 1738468, the “HDAC2 activity raw data (signal)” value (HDAC2; Conc. 4.57E-09 M, t1) was 1706591 and the “HDAC2 activity raw data (signal)” value (HDAC2; Conc. 4.57E-09 M, t2) was 1632561. For the same compound, the “HDAC2 activity raw data (signal)” value (HDAC2; Conc. 5.08E-10 M, t1) was 1698338, the “HDAC2 activity raw data (signal)” value (HDAC2; Conc. 5.08E-10 M, t2) was 1730008 and the “6-Selectivity: fold potency for HDAC6 over HDAC2” value (HDAC6) was 140 fold. For the same compound, the “HDAC6 activity raw data (signal)” value (HDAC6; Conc. 1.00E-05 M, t1) was -1435, the “HDAC6 activity raw data (signal)” value (HDAC6; Conc. 1.00E-05 M, t2) was 8169 and the “HDAC6 activity raw data (signal)” value (HDAC6; Conc. 1.11E-06 M, t1) was 31133. The “HDAC6 activity raw data (signal)” value (HDAC6; Conc. 1.11E-06 M, t2) was 32571, the “HDAC6 activity raw data (signal)” value (HDAC6; Conc. 1.23E-07 M, t1) was 145819 and the “HDAC6 activity raw data (signal)” value (HDAC6; Conc. 1.23E-07 M, t2) was 156860. For the same compound, the “HDAC6 activity raw data (signal)” value (HDAC6; Conc. 1.37E-08 M, t1) was 703698, the “HDAC6 activity raw data (signal)” value (HDAC6; Conc. 1.37E-08 M, t2) was 730719 and the “HDAC6 activity raw data (signal)” value (HDAC6; Conc. 1.52E-09 M, t1) was 1278425. The “HDAC6 activity raw data (signal)” value (HDAC6; Conc. 1.52E-09 M, t2) was 1354635, the “HDAC6 activity raw data (signal)” value (HDAC6; Conc. 3.33E-06 M, t1) was -1405 and the “HDAC6 activity raw data (signal)” value (HDAC6; Conc. 3.33E-06 M, t2) was 24989. The “HDAC6 activity raw data (signal)” value (HDAC6; Conc. 3.70E-07 M, t1) was 60632, the “HDAC6 activity raw data (signal)” value (HDAC6; Conc. 3.70E-07 M, t2) was 66340 and the “HDAC6 activity raw data (signal)” value (HDAC6; Conc. 4.12E-08 M, t1) was 363100. For the same compound, the “HDAC6 activity raw data (signal)” value (HDAC6; Conc. 4.12E-08 M, t2) was 336992, the “HDAC6 activity raw data (signal)” value (HDAC6; Conc. 4.57E-09 M, t1) was 1071704 and the “HDAC6 activity raw data (signal)” value (HDAC6; Conc. 4.57E-09 M, t2) was 1051810. The “HDAC6 activity raw data (signal)” value (HDAC6; Conc. 5.08E-10 M, t1) was 1597632 and the “HDAC6 activity raw data (signal)” value (HDAC6; Conc. 5.08E-10 M, t2) was 1554939.

With CCCC[C@H]1NC(=O)[C@H](CC(=O)O)NC(=O)[C@@H](CO)NC(=O)[C@@H](C)NC(=O)[C@H](CCCCN)NC(=O)[C@@H](CCCCN)NC(=O)[C@H](Cc2ccccc2)NC(=O)[C@H](CCCCCS)NC1=O [des4.3.1.2, SHA-Phe-dLys-Lys-dAla-dSer-Asp-dNle] (HELM PEPTIDE1{D.[CCCC[C@@H](N[*:1])C(=O)[*:2]].[O=C([C@H](CCCCCS)N[*:1])[*:2]].F.[dK].K.[dA].[dS]}$PEPTIDE1,PEPTIDE1,1:R1-8:R2$$$V2.0) the “HDAC2 activity raw data (signal)” value (HDAC2; Conc. 1.00E-05 M, t1) was 1148842, the “HDAC2 activity raw data (signal)” value (HDAC2; Conc. 1.00E-05 M, t2) was 1124925 and the “HDAC2 activity raw data (signal)” value (HDAC2; Conc. 1.11E-06 M, t1) was 1654730. The “HDAC2 activity raw data (signal)” value (HDAC2; Conc. 1.11E-06 M, t2) was 1704574, the “HDAC2 activity raw data (signal)” value (HDAC2; Conc. 1.23E-07 M, t1) was 1694685 and the “HDAC2 activity raw data (signal)” value (HDAC2; Conc. 1.23E-07 M, t2) was 1708262. The “HDAC2 activity raw data (signal)” value (HDAC2; Conc. 1.37E-08 M, t1) was 1883329, the “HDAC2 activity raw data (signal)” value (HDAC2; Conc. 1.37E-08 M, t2) was 1685214 and the “HDAC2 activity raw data (signal)” value (HDAC2; Conc. 1.52E-09 M, t1) was 1920222. For the same compound, the “HDAC2 activity raw data (signal)” value (HDAC2; Conc. 1.52E-09 M, t2) was 1770203, the “HDAC2 activity raw data (signal)” value (HDAC2; Conc. 3.33E-06 M, t1) was 1489645 and the “HDAC2 activity raw data (signal)” value (HDAC2; Conc. 3.33E-06 M, t2) was 1397108. The “HDAC2 activity raw data (signal)” value (HDAC2; Conc. 3.70E-07 M, t1) was 1733657, the “HDAC2 activity raw data (signal)” value (HDAC2; Conc. 3.70E-07 M, t2) was 1639218 and the “HDAC2 activity raw data (signal)” value (HDAC2; Conc. 4.12E-08 M, t1) was 1743081. For the same compound, the “HDAC2 activity raw data (signal)” value (HDAC2; Conc. 4.12E-08 M, t2) was 1732768, the “HDAC2 activity raw data (signal)” value (HDAC2; Conc. 4.57E-09 M, t1) was 1828637 and the “HDAC2 activity raw data (signal)” value (HDAC2; Conc. 4.57E-09 M, t2) was 1698186. The “HDAC2 activity raw data (signal)” value (HDAC2; Conc. 5.08E-10 M, t1) was 1916889, the “HDAC2 activity raw data (signal)” value (HDAC2; Conc. 5.08E-10 M, t2) was 1862597 and the “6-Selectivity: fold potency for HDAC6 over HDAC2” value (HDAC6) was greater than 100 fold. The “HDAC6 activity raw data (signal)” value (HDAC6; Conc. 1.00E-05 M, t1) was 342990, the “HDAC6 activity raw data (signal)” value (HDAC6; Conc. 1.00E-05 M, t2) was 304678 and the “HDAC6 activity raw data (signal)” value (HDAC6; Conc. 1.11E-06 M, t1) was 1091316. For the same compound, the “HDAC6 activity raw data (signal)” value (HDAC6; Conc. 1.11E-06 M, t2) was 1078978, the “HDAC6 activity raw data (signal)” value (HDAC6; Conc. 1.23E-07 M, t1) was 1593999 and the “HDAC6 activity raw data (signal)” value (HDAC6; Conc. 1.23E-07 M, t2) was 1556041. The “HDAC6 activity raw data (signal)” value (HDAC6; Conc. 1.37E-08 M, t1) was 1690122, the “HDAC6 activity raw data (signal)” value (HDAC6; Conc. 1.37E-08 M, t2) was 1641196 and the “HDAC6 activity raw data (signal)” value (HDAC6; Conc. 1.52E-09 M, t1) was 1700998. For the same compound, the “HDAC6 activity raw data (signal)” value (HDAC6; Conc. 1.52E-09 M, t2) was 1770848, the “HDAC6 activity raw data (signal)” value (HDAC6; Conc. 3.33E-06 M, t1) was 689811 and the “HDAC6 activity raw data (signal)” value (HDAC6; Conc. 3.33E-06 M, t2) was 662211. The “HDAC6 activity raw data (signal)” value (HDAC6; Conc. 3.70E-07 M, t1) was 1440305, the “HDAC6 activity raw data (signal)” value (HDAC6; Conc. 3.70E-07 M, t2) was 1367836 and the “HDAC6 activity raw data (signal)” value (HDAC6; Conc. 4.12E-08 M, t1) was 1630143. For the same compound, the “HDAC6 activity raw data (signal)” value (HDAC6; Conc. 4.12E-08 M, t2) was 1649164, the “HDAC6 activity raw data (signal)” value (HDAC6; Conc. 4.57E-09 M, t1) was 1710532 and the “HDAC6 activity raw data (signal)” value (HDAC6; Conc. 4.57E-09 M, t2) was 1671153. The “HDAC6 activity raw data (signal)” value (HDAC6; Conc. 5.08E-10 M, t1) was 1797804 and the “HDAC6 activity raw data (signal)” value (HDAC6; Conc. 5.08E-10 M, t2) was 1739375.

Source: PMC8185074, “Anchor extension: a structure-guided approach to design cyclic peptides targeting enzyme active sites” (Nature Communications, 2021)
